The values below come from US20070203066A1, “Compositions and methods for inhibiting cellular proliferation” (priority 2005, published 2007).

Where two headings read alike, the source gives them in different places. Some results are limits rather than exact numbers.

The experiment concerns HUVECs. The experiment is classed as cell-based. The method, boiled down:
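HUVECs seeded at 5,000 cells/well in EBM with 2% FCS, adhered ≥12 hours, then stimulated with bFGF 10 ng/ml or VEGF 5 ng/ml plus varying peptide concentrations. After 48 hours at 37 ° C, 5% CO2, proliferation inhibition read by BrdU incorporation.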

The mark [1] stands for this setting: HUVEC proliferation, bFGF at 10 ng/ml or VEGF at 5 ng/ml, 48 hours, BrdU incorporation, read-out: IC50 on HUVECs.

`CC[C@H](C)[C@H](NC(=O)[C@H](C)NC(=O)[C@@H](NC(=O)[C@H](CCCNC(=N)N)NC(=O)[C@H](CCC(N)=O)NC(=O)[C@H](CCCNC(=N)N)NC(=O)[C@H](CCCNC(=N)N)NC(=O)[C@H](CCCNC(=N)N)NC(=O)[C@H](CCCNC(=N)N)NC(=O)[C@H](C)NC(C)=O)C(C)C)C(=O)N[C@@H](Cc1ccc(O)cc1)C(=O)N[C@@H](CCC(=O)O)C(=O)N[C@@H](CCCCNC(=O)CN(CC(=O)NCCCC[C@H](NC(=O)[C@H](CCC(=O)O)NC(=O)[C@H](Cc1ccc(O)cc1)NC(=O)[C@@H](NC(=O)[C@H](C)NC(=O)[C@@H](NC(=O)[C@H](CCCNC(=N)N)NC(=O)[C@H](CCC(N)=O)NC(=O)[C@H](CCCNC(=N)N)NC(=O)[C@H](CCCNC(=N)N)NC(=O)[C@H](CCCNC(=N)N)NC(=O)[C@H](CCCNC(=N)N)NC(=O)[C@H](C)NC(C)=O)C(C)C)[C@@H](C)CC)C(N)=O)C(=O)CCNC(=O)OC(C)(C)C)C(N)=O` [Peptide 346]: for the setting “48 h”, the IC50 (usually the concentration that inhibits the measured activity by half) was over 30 µM.
For the setting “48 h”, `CC[C@H](C)[C@H](NC(=O)[C@H](C)NC(=O)[C@@H](NC(=O)[C@H](CCSC)NC(=O)[C@H](CCC(N)=O)NC(=O)[C@H](CCCNC(=N)N)NC(=O)[C@H](CCCNC(=N)N)NC(=O)[C@H](CCCNC(=N)N)NC(=O)[C@H](CCCNC(=N)N)NC(=O)[C@H](C)NC(C)=O)C(C)C)C(=O)N[C@@H](Cc1ccc(O)cc1)C(=O)N[C@@H](Cc1ccccc1)C(=O)N[C@@H](CCCCNC(=O)CN(CC(=O)NCCCC[C@H](NC(=O)[C@H](Cc1ccccc1)NC(=O)[C@H](Cc1ccc(O)cc1)NC(=O)[C@@H](NC(=O)[C@H](C)NC(=O)[C@@H](NC(=O)[C@H](CCSC)NC(=O)[C@H](CCC(N)=O)NC(=O)[C@H](CCCNC(=N)N)NC(=O)[C@H](CCCNC(=N)N)NC(=O)[C@H](CCCNC(=N)N)NC(=O)[C@H](CCCNC(=N)N)NC(=O)[C@H](C)NC(C)=O)C(C)C)[C@@H](C)CC)C(N)=O)C(=O)CCNC(=O)OC(C)(C)C)C(N)=O` [Peptide 385] showed an IC50 of under 10 µM.
In the case of AAKRKRKKQRVKIAYEEIFVQNM [compound 72], the 50% inhibitory concentration (IC50) under setting [1] fell in the range of 10 to 30 µM.
On the same count and under the same terms, under ATKRKRKKQRVKIIFVQNM [compound 123] stands under 10 µM; under KAARKRKKQRVKIAYEEIFVQNM [compound 56], 10 to 30 µM; under KAKRKRKKQRVKIIFVQNM [compound 122], under 10 µM.
With KKKKKMPKLRFASRIRKIRKKQF [compound 71], the IC50 under setting [1] lay in the range of 10 to 30 µM.
On to KKQRVKIAYEEIF [compound 70], for which the IC50 under setting [1] is over 30 µM.
Still for that read-out and setting: under KKQRVKIAYEEIFVKNM [compound 12] stands under 10 µM; under KKQRVKIAYEEIFVQNM [compound 24], over 30 µM.
On the same count and under the same terms, under KKSSKRAKTQRRRKSFVKMYENIH [compound 8] stands over 30 µM; under KNKSKGVVKIQRRKAPFVVYESIN [compound 7], over 30 µM.
The same measure, in the same setting: under KRKKQQRVKIAYEEIFV [compound 77] stands over 30 µM; under KRKKQRVKIAYEEIF [compound 68], over 30 µM; under KRKKQRVKIAYEEIFV [compound 63], under 10 µM.
As for KRKKQRVKIAYEEIFVKNM [compound 10], the IC50 under setting [1] lay in the range of 10 to 30 µM.
Turning to KRKKQRVKIAYEEIFVQNM [compound 22], the IC50 under setting [1] is over 30 µM.
With KRKKQRVKIIF [compound 83], the IC50 under setting [1] was over 30 µM.
The same measure, in the same setting: the value for KRKKQRVKIIFV [compound 88] was over 30 µM; that for KRKRKKQQRVKIAYEEIFV [compound 75] was 10 to 30 µM; that for KRKRKKQRVKIAYEEIF [compound 66] was 10 to 30 µM.
Consider KRKRKKQRVKIAYEEIFV [compound 61], for which, under setting [1], the IC50 lay within 10 to 30 µM.
Turning to KRKRKKQRVKIAYEEIFVKNM [compound 3], the IC50 under setting [1] lay within 10 to 30 µM.
For the compound KRKRKKQRVKIAYEEIFVQNM [compound 20], the IC50 under setting [1] is over 30 µM.
The same measure, in the same setting: the value for KRKRKKQRVKIIF [compound 81] was 10 to 30 µM; that for KRKRKKQRVKIIFV [compound 87] was under 10 µM; that for KTARKRKKQRVKIIFVQNM [compound 121] was under 10 µM.
As to KTKAARKKQRVKIAYEEIFVQNM [compound 55], under setting [1], the IC50 is over 30 µM.
With KTKAKRKKQRVKIIFVQNM [compound 120], under setting [1], the IC50 was under 10 µM.
Take KTKKQRVKIAYEEIFVQNM [compound 57]: under setting [1], the half-maximal inhibitory concentration (IC50) is over 30 µM.
In the case of KTKRARKKQRVKIIFVQNM [compound 119], under setting [1], the IC50 was under 10 µM.
As for KTKRKAAKQRVKIAYEEIFVQNM [compound 54], the IC50 under setting [1] is over 30 µM.
Still for that read-out and setting: under KTKRKAKKQRVKIIFVQNM [compound 118] stands under 10 µM; under KTKRKRAKQRVKIIFVQNM [compound 117], under 10 µM; under KTKRKRIKQRVKRAYEEIF [compound 137], over 30 µM.
On the same count and under the same terms, the value for KTKRKRKAARVKIAYEEIFVQNM [compound 53] was over 30 µM; that for KTKRKRKAQRVKIIFVQNM [compound 116] was under 10 µM.
Consider KTKRKRKKARVKIIFVQNM [compound 115], for which, under setting [1], the IC50 is under 10 µM.
As for KTKRKRKKIAYEEIFVQNM [compound 58], the half-maximal inhibitory concentration (IC50) under setting [1] is over 30 µM.
On to KTKRKRKKQAAKIAYEEIFVQNM [compound 73], for which, under setting [1], the IC50 was over 30 µM.
On the same count and under the same terms, the value for KTKRKRKKQAVKIIFVQNM [compound 114] was over 30 µM.
The same measure, in the same setting: the value for KTKRKRKKQAYEEIFVQNM [compound 29] was over 30 µM.
The same measure, in the same setting: the value for KTKRKRKKQRAKIIFVQNM [compound 113] was under 10 µM; that for KTKRKRKKQRVAAAYEEIFVQNM [compound 50] was over 30 µM; that for KTKRKRKKQRVAIIFVQNM [compound 112] was under 10 µM.
For the compound KTKRKRKKQRVEEIFVQNM [compound 31], under setting [1], the half-inhibitory concentration (IC50) is over 30 µM.
In the case of KTKRKRKKQRVKAIFVQNM [compound 111], the IC50 under setting [1] was 10 to 30 µM.
Regarding KTKRKRKKQRVKEIFVQNM [compound 32], the IC50 under setting [1] is over 30 µM.
Consider KTKRKRKKQRVKI [compound 38], for which the IC50 under setting [1] was over 30 µM.
Take KTKRKRKKQRVKIA [compound 37]: under setting [1], the IC50 was over 30 µM.
Regarding KTKRKRKKQRVKIAAEEIFVQNM [compound 49], under setting [1], the IC50 was over 30 µM.
Take KTKRKRKKQRVKIAFVQNM [compound 110]: the IC50 under setting [1] lay within 10 to 30 µM.
Same read-out and setting: under KTKRKRKKQRVKIAY [compound 36] stands over 30 µM; under KTKRKRKKQRVKIAYAAIFVQNM [compound 48], over 30 µM.
As to KTKRKRKKQRVKIAYE [compound 35], the IC50 under setting [1] was over 30 µM.
Same read-out and setting: the value for KTKRKRKKQRVKIAYEE [compound 18] was 10 to 30 µM.
Same read-out and setting: the value for KTKRKRKKQRVKIAYEEAAVQNM [compound 47] was over 30 µM; that for KTKRKRKKQRVKIAYEEI [compound 17] was 10 to 30 µM.
The same measure, in the same setting: the value for KTKRKRKKQRVKIAYEEIF [compound 16] was 10 to 30 µM; that for KTKRKRKKQRVKIAYEEIFAANM [compound 46] was 10 to 30 µM; that for KTKRKRKKQRVKIAYEEIFV [compound 15] was under 10 µM.
In the case of KTKRKRKKQRVKIAYEEIFVK [compound 14], under setting [1], the IC50 is under 10 µM.
On the same count and under the same terms, under KTKRKRKKQRVKIAYEEIFVKN [compound 13] stands under 10 µM.
Same read-out and setting: under KTKRKRKKQRVKIAYEEIFVKNM [compound 5] stands under 10 µM; under KTKRKRKKQRVKIAYEEIFVQ [compound 26], under 10 µM.
